Measured values published in ChEMBL document CHEMBL3885881, “DrugMatrix”.

Species on record: Rattus norvegicus
Test: DrugMatrix - Regimen: Daily Repeat
Type: toxicity, organism-based, Sprague-Dawley
Design: regimen Daily Repeat, gender Male, age 6-8 weeks
Conditions: in vivo, po, route oral GAVAGE, […]; for HEMOGLOBIN / LYMPHOCYTE / MEAN CORPUSCULAR HEMOGLOBIN CONCENTRATION / MEAN CORPUSCULAR VOLUME / NUCLEATED RED BLOOD CELLS / PLATELET COUNT / ABSOLUTE BASOPHIL / ABSOLUTE EOSINOPHIL / ABSOLUTE LYMPHOCYTE / ABSOLUTE MONOCYTE / ABSOLUTE SEGMENTED NEUTROPHIL / BASOPHIL / EOSINOPHIL / ERYTHROCYTE COUNT / HEMATOCRIT: tissue Blood; for ALANINE AMINOTRANSFERASE / ALBUMIN / ALKALINE PHOSPHATASE / ASPARTATE AMINOTRANSFERASE / BLOOD UREA NITROGEN / CARBON DIOXIDE / CREATINE PHOSPHOKINASE / CREATININE / LACTATE DEHYDROGENASE / TOTAL BILIRUBIN / TOTAL PROTEIN / URIC ACID: tissue Plasma
[1] = 215 mg/kg, 72 h, dose level M2, time 3 day
[2] = 215 mg/kg, 120 h, dose level M2, time 5 day
[3] = 430 mg/kg, 72 h, dose level M3, time 3 day
[4] = 430 mg/kg, 120 h, dose level M3, time 5 day
[5] = 860 mg/kg, 72 h, dose level High, time 3 day
[6] = 860 mg/kg, dose level High, time 7 day

SMILES: CC(C)OC(=O)C(C)(C)Oc1ccc(C(=O)c2ccc(Cl)cc2)cc1 [FENOFIBRATE]
- HEMOGLOBIN [1]: 13.3 G/DL
- LYMPHOCYTE [1]: 89.67%
- MEAN CORPUSCULAR HEMOGLOBIN CONCENTRATION [1]: 39.2 G/DL
- MEAN CORPUSCULAR VOLUME [1]: 61.5 fL
- NUCLEATED RED BLOOD CELLS [1]: 0 /100WBC
- PLATELET COUNT [1]: 1279.67 x10E3/uL
- ALANINE AMINOTRANSFERASE [1]: 84.33 u/L
- ALBUMIN [1]: 4.4 G/DL
- ALKALINE PHOSPHATASE [1]: 436.33 u/L
- ASPARTATE AMINOTRANSFERASE [1]: 108 u/L
- BLOOD UREA NITROGEN [1]: 11.33 mg/dL
- CARBON DIOXIDE [1]: 28.33 mmol/L
- CREATINE PHOSPHOKINASE [1]: 307 u/L
- CREATININE [1]: 0.23 mg/dL
- LACTATE DEHYDROGENASE [1]: 227 u/L
- TOTAL BILIRUBIN [1]: 0.1 mg/dL
- TOTAL PROTEIN [1]: 5.3 G/DL
- URIC ACID [1]: 1.47 mg/dL
- ABSOLUTE BASOPHIL [2]: 0 CELLS/uL
- ABSOLUTE EOSINOPHIL [2]: 0 CELLS/uL
- ABSOLUTE LYMPHOCYTE [2]: 6815.67 CELLS/uL
- ABSOLUTE MONOCYTE [2]: 96.33 CELLS/uL
- ABSOLUTE SEGMENTED NEUTROPHIL [2]: 721.33 CELLS/uL
- BASOPHIL [2]: 0%
- EOSINOPHIL [2]: 0%
- ERYTHROCYTE COUNT [2]: 5.68 x10E6/uL
- HEMATOCRIT [2]: 34.5%
- HEMOGLOBIN [2]: 13.47 G/DL
- LYMPHOCYTE [2]: 90%
- MEAN CORPUSCULAR HEMOGLOBIN CONCENTRATION [2]: 39.07 G/DL
- MEAN CORPUSCULAR VOLUME [2]: 60.77 fL
- NUCLEATED RED BLOOD CELLS [2]: 0 /100WBC
- PLATELET COUNT [2]: 1144.67 x10E3/uL
- ALANINE AMINOTRANSFERASE [2]: 92.67 u/L
- ALBUMIN [2]: 4.8 G/DL
- ALKALINE PHOSPHATASE [2]: 542 u/L
- ASPARTATE AMINOTRANSFERASE [2]: 108.67 u/L
- BLOOD UREA NITROGEN [2]: 9 mg/dL
- CARBON DIOXIDE [2]: 35.67 mmol/L
- CREATINE PHOSPHOKINASE [2]: 436 u/L
- CREATININE [2]: 0.23 mg/dL
- LACTATE DEHYDROGENASE [2]: 185.67 u/L
- TOTAL BILIRUBIN [2]: 0.1 mg/dL
- TOTAL PROTEIN [2]: 5.87 G/DL
- URIC ACID [2]: 0.93 mg/dL
- ABSOLUTE BASOPHIL [3]: 0 CELLS/uL
- ABSOLUTE EOSINOPHIL [3]: 35 CELLS/uL
- ABSOLUTE LYMPHOCYTE [3]: 8585.33 CELLS/uL
- ABSOLUTE MONOCYTE [3]: 165.67 CELLS/uL
- ABSOLUTE SEGMENTED NEUTROPHIL [3]: 847.33 CELLS/uL
- BASOPHIL [3]: 0%
- EOSINOPHIL [3]: 0.33%
- ERYTHROCYTE COUNT [3]: 5.9 x10E6/uL
- HEMATOCRIT [3]: 37.27%
- LYMPHOCYTE [3]: 89.33%
- MEAN CORPUSCULAR HEMOGLOBIN CONCENTRATION [3]: 38.8 G/DL
- MEAN CORPUSCULAR VOLUME [3]: 63.17 fL
- NUCLEATED RED BLOOD CELLS [3]: 0 /100WBC
- PLATELET COUNT [3]: 1091.33 x10E3/uL
- ALANINE AMINOTRANSFERASE [3]: 125.33 u/L
- ALBUMIN [3]: 3.57 G/DL
- ALKALINE PHOSPHATASE [3]: 509.67 u/L
- ASPARTATE AMINOTRANSFERASE [3]: 123.67 u/L
- BLOOD UREA NITROGEN [3]: 12 mg/dL
- CARBON DIOXIDE [3]: 25.67 mmol/L
- CREATINE PHOSPHOKINASE [3]: 211 u/L
- CREATININE [3]: 0.21 mg/dL
- LACTATE DEHYDROGENASE [3]: 138.33 u/L
- TOTAL BILIRUBIN [3]: 0.23 mg/dL
- TOTAL PROTEIN [3]: 4.8 G/DL
- URIC ACID [3]: 0.57 mg/dL
- ABSOLUTE BASOPHIL [4]: 0 CELLS/uL
- ABSOLUTE EOSINOPHIL [4]: 84 CELLS/uL
- ABSOLUTE LYMPHOCYTE [4]: 7042 CELLS/uL
- ABSOLUTE MONOCYTE [4]: 80.5 CELLS/uL
- ABSOLUTE SEGMENTED NEUTROPHIL [4]: 843.5 CELLS/uL
- BASOPHIL [4]: 0%
- EOSINOPHIL [4]: 1%
- ERYTHROCYTE COUNT [4]: 5.34 x10E6/uL
- HEMATOCRIT [4]: 33.8%
- HEMOGLOBIN [4]: 13.3 G/DL
- LYMPHOCYTE [4]: 87.5%
- MEAN CORPUSCULAR HEMOGLOBIN CONCENTRATION [4]: 39.35 G/DL
- MEAN CORPUSCULAR VOLUME [4]: 63.4 fL
- NUCLEATED RED BLOOD CELLS [4]: 0 /100WBC
- PLATELET COUNT [4]: 1064.5 x10E3/uL
- ALANINE AMINOTRANSFERASE [4]: 87.5 u/L
- ALBUMIN [4]: 4.65 G/DL
- ALKALINE PHOSPHATASE [4]: 418.5 u/L
- ASPARTATE AMINOTRANSFERASE [4]: 104.5 u/L
- BLOOD UREA NITROGEN [4]: 13 mg/dL
- CARBON DIOXIDE [4]: 27 mmol/L
- CREATINE PHOSPHOKINASE [4]: 307 u/L
- CREATININE [4]: 0.31 mg/dL
- LACTATE DEHYDROGENASE [4]: 104 u/L
- TOTAL BILIRUBIN [4]: 0.15 mg/dL
- TOTAL PROTEIN [4]: 5.5 G/DL
- URIC ACID [4]: 0.6 mg/dL
- ABSOLUTE BASOPHIL [5]: 0 CELLS/uL
- ABSOLUTE EOSINOPHIL [5]: 44 CELLS/uL
- ABSOLUTE LYMPHOCYTE [5]: 10937 CELLS/uL
- ABSOLUTE MONOCYTE [5]: 410.5 CELLS/uL
- ABSOLUTE SEGMENTED NEUTROPHIL [5]: 2833.5 CELLS/uL
- BASOPHIL [5]: 0%
- EOSINOPHIL [5]: 0.25%
- ERYTHROCYTE COUNT [5]: 6.03 x10E6/uL
- HEMATOCRIT [5]: 37.23%
- HEMOGLOBIN [5]: 15.3 G/DL
- LYMPHOCYTE [5]: 75.75%
- MEAN CORPUSCULAR HEMOGLOBIN CONCENTRATION [5]: 41.35 G/DL
- MEAN CORPUSCULAR VOLUME [5]: 61.7 fL
- NUCLEATED RED BLOOD CELLS [5]: 0 /100WBC
- PLATELET COUNT [5]: 961.5 x10E3/uL
- ALANINE AMINOTRANSFERASE [5]: 233.5 u/L
- ALBUMIN [5]: 4.15 G/DL
- ALKALINE PHOSPHATASE [5]: 474.75 u/L
- ASPARTATE AMINOTRANSFERASE [5]: 132.75 u/L
- BLOOD UREA NITROGEN [5]: 13 mg/dL
- CARBON DIOXIDE [5]: 29 mmol/L
- CREATINE PHOSPHOKINASE [5]: 233.75 u/L
- CREATININE [5]: 0.14 mg/dL
- LACTATE DEHYDROGENASE [5]: 160.5 u/L
- TOTAL BILIRUBIN [5]: 0.28 mg/dL
- TOTAL PROTEIN [5]: 5.55 G/DL
- ABSOLUTE BASOPHIL [6]: 0 CELLS/uL
- ABSOLUTE EOSINOPHIL [6]: 0 CELLS/uL
- ABSOLUTE LYMPHOCYTE [6]: 6863 CELLS/uL
- ABSOLUTE MONOCYTE [6]: 370.5 CELLS/uL
- ABSOLUTE SEGMENTED NEUTROPHIL [6]: 5116.5 CELLS/uL
- BASOPHIL [6]: 0%
- EOSINOPHIL [6]: 0%
- ERYTHROCYTE COUNT [6]: 6.05 x10E6/uL
- HEMATOCRIT [6]: 35.15%
- HEMOGLOBIN [6]: 13.8 G/DL
- LYMPHOCYTE [6]: 55.5%
- MEAN CORPUSCULAR HEMOGLOBIN CONCENTRATION [6]: 39.4 G/DL
- MEAN CORPUSCULAR VOLUME [6]: 57.6 fL
- NUCLEATED RED BLOOD CELLS [6]: 2 /100WBC
- PLATELET COUNT [6]: 1590.5 x10E3/uL
- ALANINE AMINOTRANSFERASE [6]: 283.5 u/L
- ALBUMIN [6]: 3 G/DL
- ALKALINE PHOSPHATASE [6]: 812 u/L
- ASPARTATE AMINOTRANSFERASE [6]: 328 u/L
- BLOOD UREA NITROGEN [6]: 63 mg/dL
- CARBON DIOXIDE [6]: 25 mmol/L
- CREATINE PHOSPHOKINASE [6]: 1456.5 u/L
- CREATININE [6]: 0.58 mg/dL
- LACTATE DEHYDROGENASE [6]: 638 u/L
- TOTAL BILIRUBIN [6]: 2.9 mg/dL
- TOTAL PROTEIN [6]: 5.7 G/DL
